# pIC50: −log10 of the molar value.
# Biological target: EBI2 (Homo sapiens, UniProt P32249)
# Assay: Cell-based luminescent assay of EBI2 modulation (7a,25-OHC stimulated)
# Settings: 7a,25-OHC final assay concentration 80 nM, 60 minute incubation
# Protocol: To assess EBI2 modulation, the compounds described herein were assayed in the following cell-based luminescent assay:
# 1) Plated 600 cells/well in 4 μL of assay media into columns 1-48 of a 1536-well assay plate, using a liquid dispenser.
# 2) Centrifuged plates at 1000 rpm for 1 minute and covered with lids.
# 3) Incubated overnight at 37° C., 100% relative humidity, 5% CO2.
# 1) Centrifuged compound plates containing compounds described herein at 500 rpm for 1 minute.
# 2) Added compounds into assay plate col 5-48 to final concentration 4-5 uM. Added matching amount of DMSO to positive and negative control wells in columns 1-4.
# 3) Dispensed 2 uL/well of assay media to columns 1-2 for the positive control wells.
# 4) Added 2 uL/well of 400 nM 7a,25-OHC (final assay concentration=80 nM) in assay media to columns 3-48 for the negative control and test compound wells.
# 5) Centrifuged plates at 1000 rpm for 1 minute and re-lid plates.
# 6) Incubated plates at 37° C., 100% relative humidity, 5% CO2 for 60 minutes.
# 7) Following 60 minute incubation, delivered 2.5 uL of Detection Reagent solution to each assay plate (Columns 1-48) using a liquid handler.
# 8) Centrifuged plates at 2000 rpm for 2 minutes and re-lid plates.
# 9) Incubated plates for 60 minutes at 25 degrees in the dark.
# 10) Read plates using the Viewlux, Envision or other suitable plate reader using a luminescence detection.
# The experimental values were normalized by the difference between values from neutral and stimulator control wells in each plate. Then normalized data was corrected to remove systematic plate patterns due to artifacts such as dispensing tip issues etc.
# EBI2, sequence (P32249 whole entry): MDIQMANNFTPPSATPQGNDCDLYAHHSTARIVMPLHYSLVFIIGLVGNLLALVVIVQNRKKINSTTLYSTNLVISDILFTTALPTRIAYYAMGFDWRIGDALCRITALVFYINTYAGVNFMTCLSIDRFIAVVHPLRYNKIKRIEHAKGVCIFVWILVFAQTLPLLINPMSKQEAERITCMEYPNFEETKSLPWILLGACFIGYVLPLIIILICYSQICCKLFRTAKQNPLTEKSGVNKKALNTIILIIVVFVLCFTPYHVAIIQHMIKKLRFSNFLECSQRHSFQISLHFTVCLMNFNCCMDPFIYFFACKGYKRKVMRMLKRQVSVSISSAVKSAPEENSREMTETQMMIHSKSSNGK
row,Structure (SMILES),pIC50
1,"O=C(C#Cc1ccc(Br)cc1)N1CC2(CCN(C(=O)c3ccc(C(F)(F)F)cc3)CC2)C1 [Compound C65, 3-(4-bromophenyl)-1-(7-{[4-(trifluoromethyl)phenyl]carbonyl}-2,7-diazaspiro[3.5]non-2-yl)prop-2-yn-1-one]",6.30 to 7.00
2,"O=C(C#Cc1ccc(Br)cc1)N1CCC2(CC1)CN(C(=O)c1ccc(F)cc1)C2 [Compound C67, 3-(4-bromophenyl)-1-{2-[(4-fluorophenyl)carbonyl]-2,7-diazaspiro[3.5]non-7-yl}prop-2-yn-1-one]",5.30 to 6.30
3,"O=C(C#Cc1ccc(Br)cc1)N1CCC2(CC1)CN(Cc1ccc(F)cc1)C2 [Compound C68, 3-(4-bromophenyl)-1-{2-[(4-fluorophenyl)methyl]-2,7-diazaspiro[3.5]non-7-yl}prop-2-yn-1-one]",> 7.00
4,"O=C(C#Cc1ccc(Br)cc1)N1CCC2(CC1)CN(Cc1ccc(Cl)cc1)C2 [Compound C69, 3-(4-bromophenyl)-1-{2-[(4-chlorophenyl)methyl]-2,7-diazaspiro[3.5]non-7-yl}prop-2-yn-1-one]",> 7.00
5,"O=C(C#Cc1ccc(Br)cc1)N1CCC2(CC1)CN(C(=O)c1ccc(Cl)cc1)C2 [Compound C70, 3-(4-bromophenyl)-1-{2-[(4-chlorophenyl)carbonyl]-2,7-diazaspiro[3.5]non-7-yl}prop-2-yn-1-one]",6.30 to 7.00
6,"O=C(C#Cc1ccc(Br)cc1)N1CCC2(CC1)CN(C(=O)c1ccc(C(F)(F)F)cc1)C2 [Compound C71, 3-(4-bromophenyl)-1-(2-{[4-(trifluoromethyl)phenyl]carbonyl}-2,7-diazaspiro[3.5]non-7-yl)prop-2-yn-1-one]",> 7.00
7,"O=C(C#Cc1ccc(Br)cc1)N1CCC2(CC1)CN(Cc1ccc(Br)cc1)C2 [Compound C72, 3-(4-bromophenyl)-1-{2-[(4-bromophenyl)methyl]-2,7-diazaspiro[3.5]non-7-yl}prop-2-yn-1-one]",> 7.00
8,"O=C(C#Cc1ccc(Br)cc1)N1CCC2(CC1)CN(Cc1ccc(C(F)(F)F)cc1)C2 [Compound C73, 3-(4-bromophenyl)-1-(2-{[4-(trifluoromethyl)phenyl]methyl}-2,7-diazaspiro[3.5]non-7-yl)prop-2-yn-1-one]",> 7.00
9,"COc1ccc(C(=O)N2CC3(CCN(C(=O)C#Cc4ccc(Br)cc4)CC3)C2)cc1 [Compound C74, 3-(4-bromophenyl)-1-{2-[(4-methoxyphenyl)carbonyl]-2,7-diazaspiro[3.5]non-7-yl}prop-2-yn-1-one]",> 7.00
10,"COc1ccc(CN2CC3(CCN(C(=O)C#Cc4ccc(Br)cc4)CC3)C2)cc1 [Compound C75, 3-(4-bromophenyl)-1-{2-[(4-methoxyphenyl)methyl]-2,7-diazaspiro[3.5]non-7-yl}prop-2-yn-1-one]",6.30 to 7.00
11,"O=C(C#Cc1ccc(Cl)cc1)N1CCC2(CC1)CN(C(=O)c1ccc(Cl)cc1)C2 [Compound C76, 3-(4-chlorophenyl)-1-{2-[(4-chlorophenyl)carbonyl]-2,7-diazaspiro[3.5]non-7-yl}prop-2-yn-1-one]",> 7.00
12,"O=C(C#Cc1ccc(Cl)cc1)N1CCC2(CC1)CN(C(=O)c1ccc(F)cc1)C2 [Compound C77, 3-(4-chlorophenyl)-1-{2-[(4-fluorophenyl)carbonyl]-2,7-diazaspiro[3.5]non-7-yl}prop-2-yn-1-one]",> 7.00
13,"O=C(C#Cc1ccc(Cl)cc1)N1CCC2(CC1)CN(Cc1ccc(C(F)(F)F)cc1)C2 [Compound C78, 3-(4-chlorophenyl)-1-(2-{[4-(trifluoromethyl)phenyl]methyl}-2,7-diazaspiro[3.5]non-7-yl)prop-2-yn-1-one]",> 7.00
14,"O=C(C#Cc1ccc(Cl)cc1)N1CCC2(CC1)CN(C(=O)c1ccc(C(F)(F)F)cc1)C2 [Compound C79, 3-(4-chlorophenyl)-1-(2-{[4-(trifluoromethyl)phenyl]carbonyl}-2,7-diazaspiro[3.5]non-7-yl)prop-2-yn-1-one]",> 7.00
15,"O=C(C#Cc1ccc(Cl)cc1)N1CC2(CCN(C(=O)c3ccc(C(F)(F)F)cc3)CC2)C1 [Compound C80, 3-(4-chlorophenyl)-1-(7-{[4-(trifluoromethyl)phenyl]carbonyl}-2,7-diazaspiro[3.5]non-2-yl)prop-2-yn-1-one]",> 7.00
16,"O=C(C#Cc1ccc(Cl)cc1)N1CC2(CCN(Cc3ccc(F)cc3)CC2)C1 [Compound C81, 3-(4-chlorophenyl)-1-{7-[(4-fluorophenyl)methyl]-2,7-diazaspiro[3.5]non-2-yl}prop-2-yn-1-one]",6.30 to 7.00

# Further lines, results first:
row,pIC50,Structure (SMILES)
1,> 7.00,"O=C(C#Cc1ccc(Cl)cc1)N1CCC2(CC1)CN(Cc1ccc(Cl)cc1)C2 [Compound C82, 3-(4-chlorophenyl)-1-{2-[(4-chlorophenyl)methyl]-2,7-diazaspiro[3.5]non-7-yl}prop-2-yn-1-one]"
2,5.30 to 6.30,"O=C(C#Cc1ccc(Cl)cc1)N1CC2(CCN(Cc3ccc(C(F)(F)F)cc3)CC2)C1 [Compound C83, 3-(4-chlorophenyl)-1-(7-{[4-(trifluoromethyl)phenyl]methyl}-2,7-diazaspiro[3.5]non-2-yl)prop-2-yn-1-one]"
3,> 7.00,"O=C(C#Cc1ccc(Cl)cc1)N1CC2(CCN(C(=O)c3ccc(Cl)cc3)CC2)C1 [Compound C84, 3-(4-chlorophenyl)-1-{7-[(4-chlorophenyl)carbonyl]-2,7-diazaspiro[3.5]non-2-yl}prop-2-yn-1-one]"
4,6.30 to 7.00,"O=C(C#Cc1ccc(Cl)cc1)N1CC2(CCN(Cc3ccc(Cl)cc3)CC2)C1 [Compound C85, 3-(4-chlorophenyl)-1-{7-[(4-chlorophenyl)methyl]-2,7-diazaspiro[3.5]non-2-yl}prop-2-yn-1-one]"
5,6.30 to 7.00,"O=C(C#Cc1ccc(F)cc1)N1CCC2(CC1)CN(C(=O)c1ccc(F)cc1)C2 [Compound C86, 3-(4-fluorophenyl)-1-{2-[(4-fluorophenyl)carbonyl]-2,7-diazaspiro[3.5]non-7-yl}prop-2-yn-1-one]"
6,> 7.00,"O=C(C#Cc1ccc(F)cc1)N1CCC2(CC1)CN(C(=O)c1ccc(Cl)cc1)C2 [Compound C87, 1-{2-[(4-chlorophenyl)carbonyl]-2,7-diazaspiro[3.5]non-7-yl}-3-(4-fluorophenyl)prop-2-yn-1-one]"
7,> 7.00,"O=C(C#Cc1ccc(F)cc1)N1CCC2(CC1)CN(C(=O)c1ccc(C(F)(F)F)cc1)C2 [Compound C88, 3-(4-fluorophenyl)-1-(2-{[4-(trifluoromethyl)phenyl]carbonyl}-2,7-diazaspiro[3.5]non-7-yl)prop-2-yn-1-one]"
8,6.30 to 7.00,"COc1ccc(C(=O)N2CC3(CCN(C(=O)C#Cc4ccc(F)cc4)CC3)C2)cc1 [Compound C89, 3-(4-fluorophenyl)-1-{2-[(4-methoxyphenyl)carbonyl]-2,7-diazaspiro[3.5]non-7-yl}prop-2-yn-1-one]"
9,6.30 to 7.00,"O=C(C#Cc1ccc(F)cc1)N1CCC2(CC1)CN(Cc1ccc(F)cc1C(F)(F)F)C2 [Compound C90, 3-(4-fluorophenyl)-1-(2-{[4-fluoro-2-(trifluoromethyl)phenyl]methyl}-2,7-diazaspiro[3.5]non-7-yl)prop-2-yn-1-one]"
10,> 7.00,"COc1ccc(C(=O)N2CCC3(CC2)CN(C(=O)C#Cc2ccc(Cl)cc2)C3)cc1 [Compound C91, 3-(4-chlorophenyl)-1-{7-[(4-methoxyphenyl)carbonyl]-2,7-diazaspiro[3.5]non-2-yl}prop-2-yn-1-one]"
11,6.30 to 7.00,"COc1ccc(C(=O)N2CCC3(CC2)CN(C(=O)C#Cc2ccc(F)cc2)C3)cc1 [Compound C92, 3-(4-fluorophenyl)-1-{7-[(4-methoxyphenyl)carbonyl]-2,7-diazaspiro[3.5]non-2-yl}prop-2-yn-1-one]"
12,5.30 to 6.30,"O=C(C#Cc1ccc(F)cc1)N1CC2(CCN(C(=O)c3ccc(F)cc3)CC2)C1 [Compound C93, 3-(4-fluorophenyl)-1-{7-[(4-fluorophenyl)carbonyl]-2,7-diazaspiro[3.5]non-2-yl}prop-2-yn-1-one]"
13,6.30 to 7.00,"O=C(C#Cc1ccc(F)cc1)N1CC2(CCN(C(=O)c3ccc(Cl)cc3)CC2)C1 [Compound C94, 1-{7-[(4-chlorophenyl)carbonyl]-2,7-diazaspiro[3.5]non-2-yl}-3-(4-fluorophenyl)prop-2-yn-1-one]"
14,> 7.00,"O=C(C#Cc1ccc(F)cc1)N1CC2(CCN(C(=O)c3ccc(Br)cc3)CC2)C1 [Compound C95, 1-{7-[(4-bromophenyl)carbonyl]-2,7-diazaspiro[3.5]non-2-yl}-3-(4-fluorophenyl)prop-2-yn-1-one]"
15,> 7.00,"O=C(C#Cc1ccc(F)cc1)N1CC2(CCN(C(=O)c3ccc(C(F)(F)F)cc3)CC2)C1 [Compound C96, 3-(4-fluorophenyl)-1-(7-{[4-(trifluoromethyl)phenyl]carbonyl}-2,7-diazaspiro[3.5]non-2-yl)prop-2-yn-1-one]"
16,6.30 to 7.00,"COc1ccc(C(=O)N2CCC3(CC2)CN(C(=O)C#Cc2ccc(F)cc2F)C3)cc1 [Compound C97, 3-(2,4-difluorophenyl)-1-{7-[(4-methoxyphenyl)carbonyl]-2,7-diazaspiro[3.5]non-2-yl}prop-2-yn-1-one]"
17,6.30 to 7.00,"O=C(C#Cc1ccc2c(c1)OCO2)N1CCC2(CC1)CN(C(=O)c1ccc(Cl)cc1)C2 [Compound C98, 3-(2H-benzo[3,4-d]1,3-dioxolen-5-yl)-1-{2-[(4-chlorophenyl)carbonyl]-2,7-diazaspiro[3.5]non-7-yl}prop-2-yn-1-one]"

# — patent US10196369B2, “Spirocyclic EBI2 modulators” (Sanford Burnham Prebys Medical Discovery Institute, priority 2013, dated 2019)
